Values joined by “and” are separate entries in the source; they are usually repeats but may differ in a detail not shown here. Identical values can stand only once.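 Test compounds were applied to cells in 96-well plates for 48 hours at 5 doses. The concentration for 50% growth inhibition is given as GI50. TGI: total growth inhibition.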
How the values were obtained:
Test in all cases: inhibition of tumour cell growth, NCI panel, 48 h
SK-MEL-5 melanoma = test system: SK-MEL-5 melanoma
TK-10 renal = test system: TK-10 renal
HOP-92 NSCLC = test system: HOP-92 NSCLC
SF-539 CNS = test system: SF-539 CNS
OVCAR-3 ovarian = test system: OVCAR-3 ovarian
SNB-19 CNS = test system: SNB-19 CNS
NCI-H226 lung = test system: NCI-H226 lung
SNB-75 CNS = test system: SNB-75 CNS
NCI-H23 lung = test system: NCI-H23 lung
MOLT-4 leukemia = test system: MOLT-4 leukemia

SMILES	GI50 (SK-MEL-5 melanoma)	TGI (SK-MEL-5 melanoma)	GI50 (TK-10 renal)	TGI (TK-10 renal)	GI50 (HOP-92 NSCLC) [µM]	TGI (HOP-92 NSCLC)	GI50 (SF-539 CNS)	TGI (SF-539 CNS)	GI50 (OVCAR-3 ovarian)	TGI (OVCAR-3 ovarian)	GI50 (SNB-19 CNS)	TGI (SNB-19 CNS)	GI50 (NCI-H226 lung)	TGI (NCI-H226 lung)	GI50 (SNB-75 CNS)	TGI (SNB-75 CNS)	GI50 (NCI-H23 lung)	TGI (NCI-H23 lung)	GI50 (MOLT-4 leukemia)	TGI (MOLT-4 leukemia)
O=[N+]([O-])c1ccc(N2CCN(Cc3ccccc3)CC2)c2c1no[n+]2[O-]	1.73 µM	3.73 µM	1.75 µM	3.23 µM	1.07	2.36 µM	1.54 µM	3 µM	1.52 µM	2.96 µM	2.23 µM	6.51 µM	1.57 µM	3.46 µM	0.954 µM	2.26 µM	1.98 µM	5.68 µM	0.194 µM	2.39 µM
COC(=O)/C=C/c1cc(O)c2c(c1)C(C(=O)OC)C(c1ccc(O)c(O)c1)O2 (stereo not drawn)	< 0.0455 µM and 0.0566 µM	5.45 µM and 4.29 µM	5.24 µM and 1.27 µM	67.5 µM and > 23.5 µM	–	> 55 µM and 9.3 µM	0.255 µM	0.72 µM and 1.19 µM	< 0.0488 µM	–	0.131 µM and 0.0868 µM	> 100 µM	2.93 µM and 3.86 µM	24.3 µM and > 100 µM	–	> 49.7 µM and 64.2 µM	0.134 µM and 0.075 µM	54.7 µM and > 100 µM	0.12 µM and 0.0553 µM	25.3 µM and 27.8 µM
O=C1OC(c2ccco2)=N/C1=C\c1ccc(Cl)c(Cl)c1	–	> 100 µM	–	> 100 µM	–	> 100 µM	–	> 100 µM	–	> 100 µM	–	> 100 µM	–	> 100 µM	–	> 100 µM	–	> 100 µM	–	> 100 µM
CC1=CC=NN2C(=O)[C@H](C)C2C1 (stereo partly drawn)	–	> 100 µM	–	> 100 µM	–	> 100 µM	–	> 100 µM	–	> 100 µM	–	> 100 µM	–	> 100 µM	–	> 100 µM	–	> 100 µM	–	> 100 µM
Cc1ccc(S(=O)(=O)N/N=C(\CCN2CCCC2)CC(c2ccccc2)c2c(O)c3ccccc3oc2=O)cc1 (stereo not drawn)	–	> 100 µM	–	> 100 µM	–	> 100 µM	–	> 100 µM	–	> 100 µM	–	> 100 µM	–	> 100 µM	–	> 100 µM	–	> 100 µM	–	–
Cc1[nH]c(=O)[nH]c(=O)c1N(CCF)CCCl	388 µM	394 µM and 788 µM and 699 µM	–	1070 µM	153	329 µM and 466 µM and 363 µM	499 µM and 153 µM	478 µM and 1680 µM and 768 µM	147 µM and 530 µM	356 µM and 1350 µM and 972 µM	711 µM and 250 µM	1160 µM and 2500 µM and 1820 µM	249 µM	584 µM and 1960 µM and 1390 µM	268 µM and 592 µM and 493 µM	617 µM and 1420 µM and 1010 µM	255 µM and 512 µM	635 µM and 2500 µM and 631 µM	60.8 µM and 80.6 µM and 43.1 µM	254 µM and 393 µM and 563 µM
O=C(O)c1ccc(S(=O)(=O)c2ccccc2)c([N+](=O)[O-])c1	–	> 100 µM	–	> 100 µM	–	> 100 µM	–	> 100 µM	–	> 100 µM	–	> 100 µM	–	> 100 µM	–	> 100 µM	–	> 100 µM	–	> 100 µM
O=C(O)c1ccc(NC(=O)C2C(=O)C(=O)N(c3ccc(C(=O)O)cc3)C2=O)cc1 (stereo not drawn)	–	–	–	> 100 µM	–	> 100 µM	–	> 100 µM	–	> 100 µM	–	> 100 µM	–	> 100 µM	–	> 100 µM	–	> 100 µM	–	> 100 µM
C/C(=N\NC(=S)N1CCCCCC1)c1nccnc1C	–	12.2 µM	–	> 100 µM	–	–	–	1.65 µM	–	–	–	–	–	–	–	21.9 µM	–	–	–	–
CC(=O)N1CCC2(C=Nc3ccccc32)CC1	–	> 100 µM	–	> 100 µM	–	> 100 µM	–	> 100 µM	–	> 100 µM	–	–	–	–	–	> 100 µM	–	> 100 µM	–	> 100 µM
O=[N+]([O-])c1cnc(Sc2ccncn2)c([N+](=O)[O-])c1	14.3 µM	28 µM	1.74 µM	3.21 µM	2.51	6.53 µM	15.3 µM	28.9 µM	1.76 µM	3.17 µM	32.8 µM	> 100 µM	–	–	14.4 µM	27.7 µM	14.3 µM	37.7 µM	3.24 µM	33.1 µM
Nc1ccccc1C#CC#Cc1ccccc1N	4.36 µM	17.9 µM	12.5 µM	32.9 µM	1.37	96.7 µM	–	–	2.85 µM	36.3 µM	> 100 µM	> 100 µM	–	–	32.3 µM	> 100 µM	4.04 µM	22 µM	16.3 µM	> 100 µM
CCC/C(=N\NC(=S)N1CCN(c2ccccn2)CC1)c1ccccn1	–	2.41 µM and 1.57 µM	1.09 µM	> 5.42 µM and 2.46 µM	–	–	0.15 µM and 0.145 µM	1.82 µM and 1.11 µM	–	0.615 µM and 1.14 µM	–	> 4.24 µM and 1.7 µM	0.136 µM	3.67 µM and 1.75 µM	–	1.84 µM and 0.325 µM	–	> 10 µM and 2.43 µM	0.00925 µM	> 10 µM and 1.05 µM
CCOC(=N)CC(=O)Nc1ccc(Cl)cc1	–	> 100 µM	–	> 100 µM	–	–	–	> 100 µM	–	> 100 µM	–	> 100 µM	–	> 100 µM	–	> 100 µM	–	> 100 µM	–	> 100 µM
S=CN1CCCCC1	–	> 100 µM	–	> 100 µM	–	–	–	> 100 µM	–	> 100 µM	–	> 100 µM	–	> 100 µM	–	> 100 µM	–	> 100 µM	–	> 100 µM
CN(C)c1ccc(-c2cc(=O)c3ccccc3[nH]2)cc1	–	–	–	> 100 µM	–	–	–	> 100 µM	–	> 100 µM	–	> 100 µM	–	> 100 µM	–	–	–	> 100 µM	–	> 100 µM
C/C(CN1C(=O)c2ccccc2C1=O)=N\NS(=O)(=O)c1cccc([N+](=O)[O-])c1	–	> 100 µM	–	> 100 µM	–	–	–	> 100 µM	–	> 100 µM	–	> 100 µM	–	> 100 µM	–	> 100 µM	–	> 100 µM	–	> 100 µM
CN/N=C(/Cc1occc(=O)c1O)C(=O)Nc1ccc(C)c(C)c1	–	> 100 µM	–	> 100 µM	–	> 100 µM	–	> 100 µM	–	> 100 µM	–	> 100 µM	–	> 100 µM	–	–	–	> 100 µM	–	> 100 µM
CC(C)C(C(=O)O)N(CC1(O)OCC(O)C(O)C1O)N=O (stereo not drawn)	–	> 100 µM	–	> 100 µM	–	> 100 µM	–	> 100 µM	–	> 100 µM	–	–	–	–	–	> 100 µM	–	> 100 µM	–	> 100 µM
CC(O)C1OC(O)C2OC(C)(C)OC12 (stereo not drawn)	–	> 100 µM	–	> 100 µM	–	–	–	> 100 µM	–	> 100 µM	–	> 100 µM	–	> 100 µM	–	> 100 µM	–	> 100 µM	–	> 100 µM

Source: PubChem BioAssay (NCI)
